In ChEMBL document CHEMBL1201862, “PubChem BioAssay data set” (2004):
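Tested at 5 concentrations; 48 h exposure; 96-well plates; endpoints linearly interpolated, else capped at highest concentration. GI50 is the concentration that inhibits growth by half.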 Active and inactive are the calls of the source. No stated cut-off is given here; in the data, active = GI50 up to about 1.1 µM and inactive = higher.

Experiments:
Experiment in all cases: inhibition of tumour cell growth, NCI panel, 48 h
NCI-H23 = test system: NCI-H23
EKVX = test system: EKVX
SK-OV-3 = test system: SK-OV-3
T47D = test system: T47D
Hs-578T = test system: Hs-578T
COLO 205 = test system: COLO 205
NCI-H460 = test system: NCI-H460
OVCAR-8 = test system: OVCAR-8
A498 = test system: A498
TK-10 = test system: TK-10
OVCAR-4 = test system: OVCAR-4
M14 = test system: M14
NCI-H226 = test system: NCI-H226
SK-MEL-2 = test system: SK-MEL-2
SK-MEL-28 = test system: SK-MEL-28
SW-620 = test system: SW-620
HCT-15 = test system: HCT-15
MCF7 = test system: MCF7
SF-295 = test system: SF-295
SR = test system: SR

| SMILES | GI50 (NCI-H23) | GI50 (EKVX) | GI50 (SK-OV-3) | GI50 (T47D) | GI50 (Hs-578T) | GI50 (COLO 205) | GI50 (NCI-H460) | GI50 (OVCAR-8) | GI50 (A498) | GI50 (TK-10) | GI50 (OVCAR-4) | GI50 (M14) | GI50 (NCI-H226) | GI50 (SK-MEL-2) | GI50 (SK-MEL-28) | GI50 (SW-620) | GI50 (HCT-15) | GI50 (MCF7) | GI50 (SF-295) | GI50 (SR) |
| --- | --- | --- | --- | --- | --- | --- | --- | --- | --- | --- | --- | --- | --- | --- | --- | --- | --- | --- | --- | --- |
| Nc1nc(N)c(N=Nc2ccc([As](=O)(O)O)c(O)c2)c(N)n1 | 7.57 µM (inactive) | > 63.5 µM (inactive) | 36.4 µM (inactive) | > 25.2 µM (inactive) | 13 µM (inactive) | 22 µM (inactive) | 6.12 µM (inactive) | 13.7 µM (inactive) | 83.6 µM (inactive) | 16.8 µM (inactive) | 32.1 µM (inactive) | 35.6 µM (inactive) | > 100 µM (inactive) | > 21.1 µM (inactive) | > 100 µM (inactive) | 4.89 µM (inactive) | 37.6 µM | 3.75 µM (inactive) | 33.7 µM (inactive) | 0.834 µM (active) |
| CC(=O)SC(C[N+](=O)[O-])c1ccc2c(c1)OCO2 (stereo not given) | 5.89 µM (inactive) | 21.4 µM (inactive) | 7.24 µM (inactive) | 17.1 µM (inactive) | 12.9 µM (inactive) | 6.37 µM (inactive) | 11.2 µM (inactive) | 13.6 µM (inactive) | 3.02 µM (inactive) | 14.4 µM (inactive) | 13.6 µM (inactive) | 5.9 µM (inactive) | 18.7 µM (inactive) | 6.19 µM (inactive) | 3.15 µM (inactive) | 3.24 µM (inactive) | 3.32 µM | 3 µM (inactive) | 10.9 µM (inactive) | 2.5 µM (inactive) |
| CC(NC1=CC(=O)c2ncccc2C1=O)C(O)c1ccccc1 (stereo not given) | 1.62 µM (inactive) | 12.6 µM (inactive) | 16.1 µM (inactive) | 21.5 µM (inactive) | 4.2 µM (inactive) | 16 µM (inactive) | 1.28 µM (inactive) | 4.37 µM (inactive) | 13.4 µM (inactive) | 38 µM (inactive) | 6.78 µM (inactive) | 2.57 µM (inactive) | 5.55 µM (inactive) | 3.55 µM (inactive) | 3.32 µM (inactive) | 4.9 µM (inactive) | 3.91 µM | 2.31 µM (inactive) | 3.32 µM (inactive) | 8.36 µM (inactive) |
| Cc1c(C(C)C)cc(OCCO)cc1C(C)C | 42.3 µM (inactive) | 31 µM (inactive) | > 100 µM (inactive) | 26.9 µM (inactive) | 27.8 µM (inactive) | 34.8 µM (inactive) | 36.4 µM (inactive) | 42.3 µM (inactive) | 31.3 µM (inactive) | > 100 µM (inactive) | 33.5 µM (inactive) | 38.8 µM (inactive) | 34.8 µM (inactive) | 23.9 µM (inactive) | 87.9 µM (inactive) | 71.9 µM (inactive) | 35.6 µM | 33 µM (inactive) | 34.4 µM (inactive) | 26.7 µM (inactive) |
| O=c1cc(-c2ccccc2)oc2c(-c3cc(Cl)cc4c(=O)cc(-c5ccccc5)oc34)cc(Cl)cc12 | 25 µM (inactive) | 22.2 µM (inactive) | 16.7 µM (inactive) | 16.4 µM (inactive) | 15.3 µM (inactive) | 31.8 µM (inactive) | 22.6 µM (inactive) | 28.9 µM (inactive) | 16.1 µM (inactive) | 45 µM (inactive) | 41.9 µM (inactive) | 27.7 µM (inactive) | 21.5 µM (inactive) | 35.7 µM (inactive) | 35 µM (inactive) | 19.9 µM (inactive) | 29.5 µM | 24.5 µM (inactive) | 22.4 µM (inactive) | > 100 µM (inactive) |
| Cc1ccc2c(c1)C(C1Cc3c(C)cccc3C1=O)OC2=O (stereo not given) | > 100 µM (inactive) | > 100 µM (inactive) | > 100 µM (inactive) | > 100 µM (inactive) | > 100 µM (inactive) | > 100 µM (inactive) | > 100 µM (inactive) | > 100 µM (inactive) | > 100 µM (inactive) | > 100 µM (inactive) | > 100 µM (inactive) | > 100 µM (inactive) | 61.5 µM (inactive) | > 100 µM (inactive) | > 100 µM (inactive) | > 100 µM (inactive) | 89.7 µM | > 100 µM (inactive) | > 100 µM (inactive) | 91.6 µM (inactive) |
| CCCn1c2ccccc2c2ccc3c(c21)C(=O)C=CC3=O | 2.58 µM (inactive) | > 5.32 µM (inactive) | > 10 µM (inactive) | 2 µM (inactive) | 7.03 µM (inactive) | 2.39 µM (inactive) | > 10 µM (inactive) | 2.54 µM (inactive) | > 10 µM (inactive) | 2.09 µM (inactive) | 1.88 µM (inactive) | 2.18 µM (inactive) | 6.38 µM (inactive) | > 4.78 µM (inactive) | 2.2 µM (inactive) | 1.16 µM (inactive) | 2.24 µM | 2.19 µM (inactive) | > 10 µM (inactive) | 0.719 µM (active) |
| COC12C=CC(C=C1C#N)CC2.COC12C=CC(CC1)CC2=O (stereo not given) | > 100 µM (inactive) | > 100 µM (inactive) | > 100 µM (inactive) | > 100 µM (inactive) | > 100 µM (inactive) | > 100 µM (inactive) | > 100 µM (inactive) | > 100 µM (inactive) | > 100 µM (inactive) | > 100 µM (inactive) | > 100 µM (inactive) | > 100 µM (inactive) | > 100 µM (inactive) | > 100 µM (inactive) | > 100 µM (inactive) | > 100 µM (inactive) | > 100 µM | > 100 µM (inactive) | > 100 µM (inactive) | > 100 µM (inactive) |
| O=c1c2ccccc2nc2sc(/N=C/C=C/c3ccccc3)nn12 | > 100 µM (inactive) | > 100 µM (inactive) | > 100 µM (inactive) | > 100 µM (inactive) | > 100 µM (inactive) | > 100 µM (inactive) | > 100 µM (inactive) | > 100 µM (inactive) | > 100 µM (inactive) | > 100 µM (inactive) | > 100 µM (inactive) | > 100 µM (inactive) | > 100 µM (inactive) | > 100 µM (inactive) | > 100 µM (inactive) | > 100 µM (inactive) | > 100 µM | > 100 µM (inactive) | > 100 µM (inactive) | > 100 µM (inactive) |
| Nc1nccc(Nc2ccc(S(N)(=O)=O)cc2)n1 | > 100 µM (inactive) | > 100 µM (inactive) | > 100 µM (inactive) | > 100 µM (inactive) | > 100 µM (inactive) | > 100 µM (inactive) | > 100 µM (inactive) | > 100 µM (inactive) | > 100 µM (inactive) | > 100 µM (inactive) | > 100 µM (inactive) | > 100 µM (inactive) | 35.2 µM (inactive) | > 100 µM (inactive) | > 100 µM (inactive) | > 100 µM (inactive) | > 100 µM | > 100 µM (inactive) | > 100 µM (inactive) | > 100 µM (inactive) |
